Test results from PMC4835159 (Journal of Medicinal Chemistry, 2016).
≈ marks a conversion by molar mass, not a printed value. Where “and” joins values, the source holds several entries; their conditions need not be identical. Equal entries are not always repeated. Where two headings read alike, the source gives them in different places.

Tests used:
CYP121 [1] = target: T1, CYP121 (Mycobacterium tuberculosis, UniProt P9WPP7); format: binding
Mtb H37Rv = assay: Antimycobacterial activity assay (MIC90); format: cell-based, Mycobacterium tuberculosis; set-up: key to MIC90: “N” indicates that compounds did not produce any significant cell death within the tested concentration range; conditions: triplicate, 0–100 μM, 2 weeks
CYP121 [2] = target: T1, CYP121; assay: Single shot UV–vis absorbance assay (Soret band shift, competition with type II inhibitor) on CYP121; format: binding; conditions: for Δλmax (change in wavelength of the Soret band): CYP121 5 μM, vs 1% v/v DMSO-d6 alone (λmax = 416.5 nm), single shot; for shifts in the CYP121 optical spectrum: UV–vis spectroscopy
CYP121 [3] = target: T1, CYP121; assay: Native mass spectrometry of CYP121 with ligands; format: binding
CYP125 = target: T2, CYP125 (Mycobacterium tuberculosis, UniProt P9WPP1); assay: Single shot UV–vis binding mode assay on CYP125
T2 sequence (P9WPP1 1-433): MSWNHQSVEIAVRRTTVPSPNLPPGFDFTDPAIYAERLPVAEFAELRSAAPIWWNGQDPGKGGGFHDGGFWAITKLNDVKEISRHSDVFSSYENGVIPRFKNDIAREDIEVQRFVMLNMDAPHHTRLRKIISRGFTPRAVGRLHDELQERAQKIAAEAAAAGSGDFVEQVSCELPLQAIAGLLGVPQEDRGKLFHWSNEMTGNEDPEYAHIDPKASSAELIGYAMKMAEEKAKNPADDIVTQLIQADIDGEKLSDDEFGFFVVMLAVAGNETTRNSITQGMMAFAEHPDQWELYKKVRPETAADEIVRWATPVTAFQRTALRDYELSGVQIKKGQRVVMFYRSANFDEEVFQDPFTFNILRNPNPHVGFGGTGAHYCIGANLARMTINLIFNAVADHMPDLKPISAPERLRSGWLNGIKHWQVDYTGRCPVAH

CYP144TR = target: T3, CYP144TR (Mycobacterium tuberculosis, UniProt P9WPL1)
T3 sequence (P9WPL1 31-434 limits assumed): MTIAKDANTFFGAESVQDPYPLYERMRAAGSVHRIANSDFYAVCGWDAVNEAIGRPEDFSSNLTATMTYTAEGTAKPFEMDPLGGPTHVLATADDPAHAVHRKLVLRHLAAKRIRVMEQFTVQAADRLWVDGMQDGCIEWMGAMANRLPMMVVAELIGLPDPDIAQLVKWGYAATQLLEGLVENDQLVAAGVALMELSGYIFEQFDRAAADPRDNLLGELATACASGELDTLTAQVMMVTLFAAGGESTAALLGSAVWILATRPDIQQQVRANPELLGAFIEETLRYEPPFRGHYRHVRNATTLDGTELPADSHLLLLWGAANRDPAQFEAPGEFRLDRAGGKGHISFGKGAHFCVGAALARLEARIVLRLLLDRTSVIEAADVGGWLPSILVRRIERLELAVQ

[4] = tested on: CYP1A (combined CYP1A1 and CYP1A2); assay: Human P450 inhibition in human liver microsomes, CYP1A (ethoxyresorufin); conditions: human, microsomes
[5] = Gibbs free energy of binding to CYP121 divided by number of heavy atoms (ΔG/HA)

T1 sequence (P9WPP7 whole entry): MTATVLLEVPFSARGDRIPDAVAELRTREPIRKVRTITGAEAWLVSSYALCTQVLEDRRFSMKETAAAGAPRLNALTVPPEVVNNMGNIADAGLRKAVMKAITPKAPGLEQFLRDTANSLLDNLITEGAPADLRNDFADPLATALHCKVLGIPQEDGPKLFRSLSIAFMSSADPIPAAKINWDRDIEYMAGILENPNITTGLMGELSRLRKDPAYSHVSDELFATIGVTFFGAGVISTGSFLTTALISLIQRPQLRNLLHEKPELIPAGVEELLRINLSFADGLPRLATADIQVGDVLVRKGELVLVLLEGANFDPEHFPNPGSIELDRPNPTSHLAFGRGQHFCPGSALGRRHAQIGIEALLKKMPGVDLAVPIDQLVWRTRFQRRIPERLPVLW

Structure (SMILES): Nc1[nH]nc(-c2cccc(O)c2)c1-c1ccc(O)cc1 [14b, 3-(5-Amino-4-(4-hydroxyphenyl)-1H-pyrazol-3-yl)phenol]
- LE (ligand efficiency) (CYP121 [1]; [5]): 0.29

Structure (SMILES): Nc1[nH]nc(-c2cccc(F)c2)c1-c1ccc(O)cc1 [14c, 4-(5-Amino-3-(3-fluorophenyl)-1H-pyrazol-4-yl)phenol]
- LE (ligand efficiency) (CYP121 [1]; [5]): 0.25
- MIC90 (Mtb H37Rv): N

Structure (SMILES): Nc1[nH]nc(-c2ccc(O)cc2O)c1-c1ccc(O)cc1 [14d, 4-(5-amino-4-(4-hydroxyphenyl)-1H-pyrazol-3-yl)benzene-1,3-diol]
- LE (ligand efficiency) (CYP121 [1]; [5]): 0.24

Structure (SMILES): Nc1[nH]ncc1-c1cccc(-c2cccnc2)c1 [18e, 4-(3-(Pyridin-3-yl)phenyl)-1H-pyrazol-5-amine]
- Δλmax (change in wavelength of the Soret band) (CYP121 [2]): 0 nm

Structure (SMILES): Nc1[nH]ncc1-c1cccc(-c2ccncc2)c1 [18f, 4-(3-(Pyridin-4-yl)phenyl)-1H-pyrazol-5-amine]
- Δλmax (change in wavelength of the Soret band) (CYP121 [2]): 1 nm

Structure (SMILES): Nc1[nH]ncc1-c1cccc(-c2ccc3[nH]ccc3c2)c1 [18g, 4-(3-(1H-Indol-5-yl)phenyl)-1H-pyrazol-5-amine]
- Δλmax (change in wavelength of the Soret band) (CYP121 [2]): 0 nm

Structure (SMILES): Nc1[nH]ncc1-c1cccc(-c2ccc3cc[nH]c3c2)c1 [18h, 4-(3-(1H-Indol-6-yl)phenyl)-1H-pyrazol-5-amine]
- Δλmax (change in wavelength of the Soret band) (CYP121 [2]): 0 nm

Structure (SMILES): Nc1[nH]ncc1-c1cccc(-c2cn[nH]c2)c1 [18i, 4-(3-(1H-Pyrazol-4-yl)phenyl)-1H-pyrazol-5-amine]
- Δλmax (change in wavelength of the Soret band) (CYP121 [2]): 0 nm

Structure (SMILES): Nc1cccc(-c2cccc(-c3cn[nH]c3N)c2)c1 [19a, 4-(3′-Amino-[1,1′-biphenyl]-3-yl)-1H-pyrazol-5-amine]
- LE (ligand efficiency) (CYP121 [1]): 0.35
- MIC90 (Mtb H37Rv): N
- Monomer (%) of CYP121 (CYP121 [3]; Protein-Ligand Ratio 1:0.5): 23%
- ligand binding stoichiometry, CYP121 Dimer (CYP121 [3]; Protein-Ligand Ratio 1:0.5): 0
- ligand binding stoichiometry, CYP121 Monomer (CYP121 [3]; Protein-Ligand Ratio 1:0.5): 0
- Monomer (%) of CYP121 (CYP121 [3]; Protein-Ligand Ratio 1:1): 28%
- ligand binding stoichiometry, CYP121 Dimer (CYP121 [3]; Protein-Ligand Ratio 1:1): 0
- ligand binding stoichiometry, CYP121 Monomer (CYP121 [3]; Protein-Ligand Ratio 1:1): 0
- Monomer (%) of CYP121 (CYP121 [3]; Protein-Ligand Ratio 1:25): 33%
- ligand binding stoichiometry, CYP121 Dimer (CYP121 [3]; Protein-Ligand Ratio 1:25): 2
- ligand binding stoichiometry, CYP121 Monomer (CYP121 [3]; Protein-Ligand Ratio 1:25): 1

Structure (SMILES): Nc1cccc(-c2cc(-c3cn[nH]c3N)ccc2OCc2ccccc2)c1 [19b, 4-(3′-Amino-6-(benzyloxy)-[1,1′-biphenyl]-3-yl)-1H-pyrazol-5-amine]
- LE (ligand efficiency) (CYP121 [1]; [5]): 0.23
- shifts in the CYP121 optical spectrum (CYP121 [2]): type II shifts

Structure (SMILES): COc1ccc(-c2cn[nH]c2N)cc1-c1cccc(N)c1 [19c, 4-(3′-Amino-6-methoxy-[1,1′-biphenyl]-3-yl)-1H-pyrazol-5-amine]
- LE (ligand efficiency) (CYP121 [1]; [5]): 0.27
- shifts in the CYP121 optical spectrum (CYP121 [2]): type II shifts

Structure (SMILES): COc1ccc(-c2n[nH]c(N)c2-c2cccc(-c3cccc(N)c3)c2)cc1 [24a, 4-(3′-Amino-[1,1′-biphenyl]-3-yl)-3-(4-methoxyphenyl)-1H-pyrazol-5-amine]
- LE (ligand efficiency) (CYP121 [1]; [5]): 0.38
- shifts in the CYP121 optical spectrum (CYP121 [2]): type II shifts
- MIC90 (Mtb H37Rv; Mycobacterium tuberculosis, 336 h, read-out: MIC90): 50 µM (≈ 17.8 µg/mL)
- Monomer (%) of CYP121 (CYP121 [3]; Protein-Ligand Ratio 1:0.5): 19%
- ligand binding stoichiometry, CYP121 Dimer (CYP121 [3]; Protein-Ligand Ratio 1:0.5): 1
- ligand binding stoichiometry, CYP121 Monomer (CYP121 [3]; Protein-Ligand Ratio 1:0.5): 0
- Monomer (%) of CYP121 (CYP121 [3]; Protein-Ligand Ratio 1:1): 16%
- ligand binding stoichiometry, CYP121 Dimer (CYP121 [3]; Protein-Ligand Ratio 1:1): 1
- ligand binding stoichiometry, CYP121 Monomer (CYP121 [3]; Protein-Ligand Ratio 1:1): 1
- Monomer (%) of CYP121 (CYP121 [3]; Protein-Ligand Ratio 1:25): 16%
- ligand binding stoichiometry, CYP121 Dimer (CYP121 [3]; Protein-Ligand Ratio 1:25): 2
- ligand binding stoichiometry, CYP121 Monomer (CYP121 [3]; Protein-Ligand Ratio 1:25): 1

Structure (SMILES): Nc1cccc(-c2cc(-c3c(-c4ccc(O)cc4)n[nH]c3N)ccc2O)c1 [25b, 3′-Amino-5-(5-amino-3-(4-hydroxyphenyl)-1H-pyrazol-4-yl)-[1,1′-biphenyl]-2-ol]
- Binding Mode, CYP125 (CYP125): N
- Binding Mode, CYP144TR (CYP144TR): N

Structure (SMILES): Oc1ccc(-c2n[nH]c(NCc3ccc(O)c(Br)c3)c2-c2ccc(O)cc2)cc1 [26b, 4,4′-(5-((3-Bromo-4-hydroxybenzyl)amino)-1H-pyrazole-3,4-diyl)diphenol]
- LE (ligand efficiency) (CYP121 [1]; [5]): 0.22

Structure (SMILES): Oc1ccc(-c2n[nH]c(NCc3ccsc3)c2-c2ccc(O)cc2)cc1 [26c, 4,4′-(5-((Thiophen-3-ylmethyl)amino)-1H-pyrazole-3,4-diyl)diphenol]
- LE (ligand efficiency) (CYP121 [1]; [5]): 0.25

Structure (SMILES): Oc1ccc(-c2n[nH]c(NCc3ccco3)c2-c2ccc(O)cc2)cc1 [26d, 4,4′-(5-((Furan-2-ylmethyl)amino)-1H-pyrazole-3,4-diyl)diphenol]
- LE (ligand efficiency) (CYP121 [1]; [5]): 0.24

Structure (SMILES): Oc1ccc(-c2n[nH]c(NCc3ccc4[nH]ccc4c3)c2-c2ccc(O)cc2)cc1 [26e, 4,4′-(5-(((1H-Indol-5-yl)methyl)amino)-1H-pyrazole-3,4-diyl)diphenol]
- LE (ligand efficiency) (CYP121 [1]; [5]): 0.19

Structure (SMILES): Oc1ccc(-c2n[nH]c(NCc3cccc4[nH]ncc34)c2-c2ccc(O)cc2)cc1 [26f, 4,4′-(5-(((1H-Indazol-4-yl)methyl)amino)-1H-pyrazole-3,4-diyl)diphenol]
- LE (ligand efficiency) (CYP121 [1]; [5]): 0.20

Structure (SMILES): Oc1ccc(-c2n[nH]c(NCc3ccncc3)c2-c2ccc(O)cc2)cc1 [26g, 4,4′-(5-((Pyridin-4-ylmethyl)amino)-1H-pyrazole-3,4-diyl)diphenol]
- LE (ligand efficiency) (CYP121 [1]; [5]): 0.18

Structure (SMILES): Oc1ccc(-c2n[nH]c(NCc3c[nH]cn3)c2-c2ccc(O)cc2)cc1 [26h, 4,4′-(5-(((1H-Imidazol-4-yl)methyl)amino)-1H-pyrazole-3,4-diyl)diphenol]
- LE (ligand efficiency) (CYP121 [1]; [5]): 0.19
- Δλmax (type II shift) (CYP121 [2]; ligand 100 μM, CYP121): +1.5 nm

Structure (SMILES): O=C(Nc1[nH]nc(-c2ccc(O)cc2)c1-c1ccc(O)cc1)c1ccccc1 [29a, N-(3,4-Bis(4-hydroxyphenyl)-1H-pyrazol-5-yl)benzamide]
- LE (ligand efficiency) (CYP121 [1]; [5]): 0.18

Structure (SMILES): O=C(Nc1[nH]nc(-c2ccc(O)cc2)c1-c1ccc(O)cc1)c1ccc(O)cc1 [29b, N-(3,4-Bis(4-hydroxyphenyl)-1H-pyrazol-5-yl)-4-hydroxybenzamide]
- LE (ligand efficiency) (CYP121 [1]; [5]): 0.19

Structure (SMILES): O=C(Nc1[nH]nc(-c2ccc(O)cc2)c1-c1ccc(O)cc1)c1ccncc1 [29c, N-(3,4-Bis(4-hydroxyphenyl)-1H-pyrazol-5-yl)isonicotinamide]
- LE (ligand efficiency) (CYP121 [1]; [5]): 0.16
- MIC90 (Mtb H37Rv): N

Structure (SMILES): CO[C@H]1/C=C/O[C@@]2(C)Oc3c(C)c(O)c4c(O)c(c(/C=N/N5CCN(C)CC5)c(O)c4c3C2=O)NC(=O)/C(C)=C\C=C\[C@H](C)[C@H](O)[C@@H](C)[C@@H](O)[C@@H](C)[C@H](OC(C)=O)[C@@H]1C [Rifampicin, reference compound]
- MIC (Mtb H37Rv; Mycobacterium tuberculosis, 336 h): 0.75 µM (≈ 0.617 µg/mL)

Structure (SMILES): O=c1cc(-c2ccccc2)oc2c1ccc1ccccc12 [alpha-naphthoflavone, reference compound]
- IC50 [4]: 59.7 nM

Structure (SMILES): Oc1ccc(Nc2[nH]nc(-c3ccc(O)cc3)c2-c2ccc(O)cc2)cc1 [compound 2, 4,4'-(5-((4-hydroxyphenyl)amino)-1H-pyrazole-3,4-diyl)diphenol]
- LE (ligand efficiency) (CYP121 [1]; [5]): 0.24 and 0.23

Structure (SMILES): Nc1cc(-c2ccc(O)cc2)n[nH]1 [compound 3, 4-(5-Amino-1H-pyrazol-3-yl)phenol]
- LE (ligand efficiency) (CYP121 [1]; [5]): 0.30

Structure (SMILES): Nc1[nH]ncc1-c1ccc(O)cc1 [compound 4, 4-(5-amino-1H-pyrazol-4-yl)phenol]
- LE (ligand efficiency) (CYP121 [1]; [5]): 0.29

Structure (SMILES): Oc1ccc(Nc2cc(-c3ccc(O)cc3)n[nH]2)cc1 [compound 6, 4-((3-(4-Hydroxyphenyl)-1H-pyrazol-5-yl)amino)phenol]
- LE (ligand efficiency) (CYP121 [1]; [5]): 0.34
- Monomer (%) of CYP121 (CYP121 [3]; Protein-Ligand Ratio 1:0.5): 11%
- ligand binding stoichiometry, CYP121 Dimer (CYP121 [3]; Protein-Ligand Ratio 1:0.5): 0
- ligand binding stoichiometry, CYP121 Monomer (CYP121 [3]; Protein-Ligand Ratio 1:0.5): 0
- Monomer (%) of CYP121 (CYP121 [3]; Protein-Ligand Ratio 1:1): 26%
- ligand binding stoichiometry, CYP121 Dimer (CYP121 [3]; Protein-Ligand Ratio 1:1): 0
- ligand binding stoichiometry, CYP121 Monomer (CYP121 [3]; Protein-Ligand Ratio 1:1): 0
- Monomer (%) of CYP121 (CYP121 [3]; Protein-Ligand Ratio 1:25): 12%
- ligand binding stoichiometry, CYP121 Dimer (CYP121 [3]; Protein-Ligand Ratio 1:25): 1
- ligand binding stoichiometry, CYP121 Monomer (CYP121 [3]; Protein-Ligand Ratio 1:25): 1

Structure (SMILES): NC(=O)c1cc(Cl)ccc1N [compound 7]
- LE (ligand efficiency) (CYP121 [1]; [5]): 0.30

Structure (SMILES): Nc1cccc(Cn2cncn2)c1 [compound 8]
- LE (ligand efficiency) (CYP121 [1]; [5]): 0.29

Structure (SMILES): Cc1ccc2cc(N)ccc2n1 [compound 9]
- LE (ligand efficiency) (CYP121 [1]; [5]): 0.39
